Measured values reported in ChEMBL document CHEMBL1201862, “PubChem BioAssay data set” (2004).
Calls of active or inactive are those of the source.

Tests used:
[1] = HEK-293T cell viability reduction – luminescence, B-cell screen hits, cytotoxicity control for BCR NF-kB inhibitor project, dose response (AID 489021); type: functional, cell-based;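 note: HEK-293T cells carrying an NF-kB luciferase reporter; cells exposed to compound for about 14 hours before viability readout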
[2] = biological target: T1, Short transient receptor potential channel 4 (Mus musculus, UniProt Q9QUQ5); assay: block of DAMGO-driven TRPC4 calcium entry – cell-based, HEK293 TRPC4/mu-opioid, Fluo-4 calcium, dose response (AID 434942); type: functional;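 note: potency of inhibitors blocking the TRPC4 calcium response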
T1 sequence (Q9QUQ5 whole entry): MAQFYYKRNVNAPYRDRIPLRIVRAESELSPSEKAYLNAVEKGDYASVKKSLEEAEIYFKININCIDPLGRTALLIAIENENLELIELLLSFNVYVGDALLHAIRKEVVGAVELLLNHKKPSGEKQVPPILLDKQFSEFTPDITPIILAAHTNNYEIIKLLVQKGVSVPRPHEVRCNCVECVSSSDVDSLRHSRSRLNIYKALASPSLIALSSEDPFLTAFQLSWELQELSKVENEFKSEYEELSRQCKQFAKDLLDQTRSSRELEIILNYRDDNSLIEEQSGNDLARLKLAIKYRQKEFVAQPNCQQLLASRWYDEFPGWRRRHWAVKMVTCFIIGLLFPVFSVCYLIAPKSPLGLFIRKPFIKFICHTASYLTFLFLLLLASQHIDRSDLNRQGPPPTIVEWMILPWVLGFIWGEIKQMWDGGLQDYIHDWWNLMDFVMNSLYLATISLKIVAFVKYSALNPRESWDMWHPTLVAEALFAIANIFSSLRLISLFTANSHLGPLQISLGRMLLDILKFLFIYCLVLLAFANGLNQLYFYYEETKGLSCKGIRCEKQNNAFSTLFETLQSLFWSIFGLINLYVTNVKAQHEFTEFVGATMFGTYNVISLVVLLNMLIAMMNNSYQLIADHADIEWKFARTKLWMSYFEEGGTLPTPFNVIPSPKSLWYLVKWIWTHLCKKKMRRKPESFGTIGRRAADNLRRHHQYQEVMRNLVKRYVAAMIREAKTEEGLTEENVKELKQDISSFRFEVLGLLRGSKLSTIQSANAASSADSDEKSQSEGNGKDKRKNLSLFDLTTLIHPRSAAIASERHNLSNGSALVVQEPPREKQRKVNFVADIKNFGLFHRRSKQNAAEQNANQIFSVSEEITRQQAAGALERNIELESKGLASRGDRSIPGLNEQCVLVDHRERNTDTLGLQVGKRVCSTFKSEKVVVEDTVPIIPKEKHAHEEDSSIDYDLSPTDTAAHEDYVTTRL

[3] = biological target: Eukaryotic translation initiation factor 4E (Mus musculus, UniProt P63073); assay: blockers of eIF4G binding by eIF4E – biochemical, TR-FRET, dose response (AID 855); type: functional;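 note: potency for disrupting eIF4E binding to eIF4GI seen as loss of FRET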
HEK293 [4] = assay: inhibition of NOD1-driven NF-kB reporter – cell-based, luminescence, uHTS, primary screen (AID 1578); type: functional; settings: Homo sapiens
HEK293 [5] = assay: NOD2 signaling inhibitors in MDP-stimulated cells, cell-based, uHTS, luminescence (AID 2001); type: functional; settings: Homo sapiens
HEK293 [6] = assay: cells; type: functional, cell-based; settings: Homo sapiens
HEK293 [7] = assay: cells; type: functional, cell-based; settings: Homo sapiens; remark: listed apart in the source
[8] = off-target signal loss in HeLa-CEM21 co-culture – HeLa F-luc CTL cells, cherry-picked, counter-screen for HIV-1 Env fusion inhibitor project, dose response (AID 652040); type: functional, cell-based;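 note: potency for signal decrease marking cytotoxic or nonspecific inhibition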
[9] = blockers of HIV-1 ZM109 envelope-driven cell-cell fusion – HeLa effector, CEM target cells, luciferase, cherry-pick, dose response (AID 652058); type: functional, cell-based;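 note: luciferase signal from HIV-1 Env mediated cell-cell fusion of effector and target cells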
[10] = HIV-1 AD8 envelope cell-cell fusion blockers – cherry-pick, dose response (AID 652062); type: functional, cell-based;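 note: luciferase signal from cell-cell fusion driven by HIV-1 clade B AD8 Env; potency is for inhibitors of fusion seen as a drop in luminescence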
[11] = blockers of HIV-1 envelope-mediated cell-cell fusion – cherry-pick, dose response (AID 652057); type: functional, cell-based
H9c2 = assay: cells; type: functional, cell-based; settings: Rattus norvegicus, H9c2, Myocardium;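 note: confirmatory concentration-response retest of ultra-high-throughput screening hits for modulation of myocardial damage; cell death induced by hydrogen peroxide oxidative stress; compound pretreatment for 60 min then peroxide exposure for 2 h; potency is for protecting the cells against peroxide damage rather than for killing them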
[12] = viability loss in CEM21 cells – cell-based, CellTiter-Glo luminescence, cherry-picked, cytotoxicity control for viral fusion inhibitor project, dose response (AID 652042); type: functional;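 note: potency for signal decrease meaning cytotoxicity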
Nonstructural protein 1 = Nonstructural protein 1 (Influenza A virus, UniProt Q194T2); type: functional, Influenza A virus (A/California/07/2009(H1N1))
[13] = biological target: T2, DNA repair protein RAD52 homolog (Homo sapiens, UniProt P43351); type: functional, biochemical
T2 sequence (P43351 whole entry): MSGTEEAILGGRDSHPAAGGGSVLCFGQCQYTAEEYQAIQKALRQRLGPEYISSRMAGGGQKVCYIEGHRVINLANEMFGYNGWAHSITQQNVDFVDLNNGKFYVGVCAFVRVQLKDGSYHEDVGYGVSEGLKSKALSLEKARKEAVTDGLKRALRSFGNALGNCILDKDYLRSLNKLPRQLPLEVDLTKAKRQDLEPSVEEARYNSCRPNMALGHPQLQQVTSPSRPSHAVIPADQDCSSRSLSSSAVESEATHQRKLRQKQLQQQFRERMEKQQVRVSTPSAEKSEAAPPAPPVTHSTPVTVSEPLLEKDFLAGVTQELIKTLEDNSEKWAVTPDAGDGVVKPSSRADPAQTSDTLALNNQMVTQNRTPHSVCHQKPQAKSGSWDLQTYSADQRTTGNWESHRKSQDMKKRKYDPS

[14] = alpha-synuclein stem-loop luciferase translation blockers – H4 neuroglioma cells, luminescence, confirmation (AID 1988); type: functional, cell-based
Paired box protein Pax-8 = Paired box protein Pax-8 (Homo sapiens, UniProt Q06710); assay: PAX8 transcriptional activity inhibition in RMG-I – RMG-I cells, luciferase, cherry-pick, dose response (AID 687027); type: functional, cell-based;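 note: luciferase reporter driven by Pax8 target thyroperoxidase promoter measured by SteadyGlo luminescence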
[15] = luciferase reporter signal suppression in cells – H4 neuroglioma cells, luminescence, dose response (AID 1990); type: functional, cell-based
[16] = Luminescence Cell-Based Dose Response HTS to Identify Inhibitors of 5'UTR Stem-Loop Driven Prion Protein mRNA Translation in H4 Neuroglioblastoma Cells. [Related pubchem assays: 1827 (Project Summary), 1813 (Primary HTS)]; type: functional
INS1 = assay: INS-1E survival protection against cytokine death – cell-based, luminescence, retest, dose response (AID 449756); type: functional; settings: Rattus norvegicus;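 note: cell death triggered by IL-1 beta plus TNF-alpha plus IFN-gamma mixture; protective hits raise ATP signal compared with cytokine alone wells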
[17] = fluconazole-exposed Candida albicans growth modulators – fluorescence, retest, confirmation (AID 2467); type: functional, cell-based
[18] = NIH-3T3 fibroblast cytotoxicity, dose response, cytotoxicity control, cell-based, fluorescence, Alamar Blue, secondary assay (AID 2327); type: functional;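 note: NIH-3T3 mouse fibroblasts cultured with fluconazole at 8 µg/mL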
Genome polyprotein = Genome polyprotein (dengue virus type 2, UniProt P29990); assay: flavivirus cap methylation enzyme inhibition – biochemical, confirmation dose response, primary screen (AID 588689); type: functional
[19] = biological target: T3, Rac GTPase-activating protein 1 (Homo sapiens, UniProt Q9H0H5); assay: blockers of MgcRacGAP-driven Rac1 GTP hydrolysis – biochemical, ADP Hunter fluorescence, primary and confirmatory, confirmation (AID 624330); type: functional
T3 sequence (Q9H0H5 whole entry): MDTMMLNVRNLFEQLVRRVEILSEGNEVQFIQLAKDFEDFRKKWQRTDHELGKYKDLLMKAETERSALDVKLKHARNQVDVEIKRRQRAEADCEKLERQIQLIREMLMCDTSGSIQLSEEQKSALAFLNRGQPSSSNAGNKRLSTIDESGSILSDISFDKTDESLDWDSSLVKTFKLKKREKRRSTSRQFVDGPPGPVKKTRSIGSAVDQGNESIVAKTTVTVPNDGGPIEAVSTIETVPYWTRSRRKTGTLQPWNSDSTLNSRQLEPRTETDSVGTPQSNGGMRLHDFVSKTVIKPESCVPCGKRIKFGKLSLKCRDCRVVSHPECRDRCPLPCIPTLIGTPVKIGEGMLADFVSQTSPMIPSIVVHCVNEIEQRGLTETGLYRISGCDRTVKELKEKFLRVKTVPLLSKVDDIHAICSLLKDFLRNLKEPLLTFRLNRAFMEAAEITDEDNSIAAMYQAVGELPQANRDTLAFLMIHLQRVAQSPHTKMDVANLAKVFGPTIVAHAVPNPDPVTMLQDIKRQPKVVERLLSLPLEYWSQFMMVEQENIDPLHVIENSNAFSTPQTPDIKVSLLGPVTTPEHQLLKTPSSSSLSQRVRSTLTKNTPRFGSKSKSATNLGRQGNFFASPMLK

[20] = NIH3T3 cell viability loss – ATP luminescence, mouse fibroblasts, counter-screen, dose response (AID 2010); type: functional, cell-based;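 note: cells exposed to compound for about 90 hours before reading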
[21] = Trypanosoma cruzi growth suppression in host cells – NIH3T3 host cells, beta-gal luminescence, confirmation (AID 2044); type: functional, cell-based;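 note: intracellular parasites grown in NIH/3T3 mouse fibroblasts as host cells; luminescent beta-galactosidase reporter signal from transgenic T. cruzi replicating inside host cells; inhibitors lower the luminescence signal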
[22] = Luminescence Cell-Based Dose Confirmation HTS to Identify Activators of 5'UTR Stem-Loop Driven Alpha-Synuclein mRNA Translation in H4 Neuroglioblastoma Cells. [Related pubchem assays: 1829 (Project Summary), 1814 (Primary HTS)]; type: functional
[23] = Luminescence Cell-Based Dose Response HTS to Identify Activators of Luciferase Translation or Activity in H4 […] Cells. [Related pubchem assays: 1829 (Project Summary), 1814 (Primary HTS)]; type: functional
H4 = assay: Luminescence Cell-Based Dose Response HTS to Identify Activators of 5'UTR Stem-Loop Driven Prion Protein mRNA Translation in H4 Neuroglioblastoma Cells. [Related pubchem assays: 1829 (Project Summary), 1814 (Primary HTS)]; type: functional; settings: Homo sapiens

Chain of Nonstructural protein 1 (Q194T2 whole entry): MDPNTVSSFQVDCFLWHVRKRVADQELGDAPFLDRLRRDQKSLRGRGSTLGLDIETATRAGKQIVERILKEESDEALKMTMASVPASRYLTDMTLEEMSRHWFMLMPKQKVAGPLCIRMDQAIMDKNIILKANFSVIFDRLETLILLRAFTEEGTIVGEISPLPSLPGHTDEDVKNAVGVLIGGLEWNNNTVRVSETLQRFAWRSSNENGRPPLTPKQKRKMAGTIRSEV
Chain of Eukaryotic translation initiation factor 4E (P63073 whole entry): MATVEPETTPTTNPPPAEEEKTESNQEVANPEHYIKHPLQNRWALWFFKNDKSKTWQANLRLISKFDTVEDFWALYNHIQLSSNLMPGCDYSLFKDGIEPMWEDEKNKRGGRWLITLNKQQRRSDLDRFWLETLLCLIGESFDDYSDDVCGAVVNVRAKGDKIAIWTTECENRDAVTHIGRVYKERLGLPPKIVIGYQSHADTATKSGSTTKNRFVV
Chain of Paired box protein Pax-8 (Q06710 whole entry): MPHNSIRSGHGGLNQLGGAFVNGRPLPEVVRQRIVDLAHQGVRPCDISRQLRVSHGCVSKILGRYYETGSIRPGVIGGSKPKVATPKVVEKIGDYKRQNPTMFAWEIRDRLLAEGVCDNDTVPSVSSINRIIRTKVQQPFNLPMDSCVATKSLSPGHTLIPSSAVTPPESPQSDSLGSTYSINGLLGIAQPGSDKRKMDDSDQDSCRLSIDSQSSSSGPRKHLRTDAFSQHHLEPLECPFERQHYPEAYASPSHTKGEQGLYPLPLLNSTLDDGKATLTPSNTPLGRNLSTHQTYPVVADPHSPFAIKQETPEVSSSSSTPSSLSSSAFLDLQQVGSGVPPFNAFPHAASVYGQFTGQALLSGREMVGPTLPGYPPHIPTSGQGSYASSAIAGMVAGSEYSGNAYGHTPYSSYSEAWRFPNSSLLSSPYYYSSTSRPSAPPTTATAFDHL
Chain of Genome polyprotein (P29990 2492-3391 limits assumed): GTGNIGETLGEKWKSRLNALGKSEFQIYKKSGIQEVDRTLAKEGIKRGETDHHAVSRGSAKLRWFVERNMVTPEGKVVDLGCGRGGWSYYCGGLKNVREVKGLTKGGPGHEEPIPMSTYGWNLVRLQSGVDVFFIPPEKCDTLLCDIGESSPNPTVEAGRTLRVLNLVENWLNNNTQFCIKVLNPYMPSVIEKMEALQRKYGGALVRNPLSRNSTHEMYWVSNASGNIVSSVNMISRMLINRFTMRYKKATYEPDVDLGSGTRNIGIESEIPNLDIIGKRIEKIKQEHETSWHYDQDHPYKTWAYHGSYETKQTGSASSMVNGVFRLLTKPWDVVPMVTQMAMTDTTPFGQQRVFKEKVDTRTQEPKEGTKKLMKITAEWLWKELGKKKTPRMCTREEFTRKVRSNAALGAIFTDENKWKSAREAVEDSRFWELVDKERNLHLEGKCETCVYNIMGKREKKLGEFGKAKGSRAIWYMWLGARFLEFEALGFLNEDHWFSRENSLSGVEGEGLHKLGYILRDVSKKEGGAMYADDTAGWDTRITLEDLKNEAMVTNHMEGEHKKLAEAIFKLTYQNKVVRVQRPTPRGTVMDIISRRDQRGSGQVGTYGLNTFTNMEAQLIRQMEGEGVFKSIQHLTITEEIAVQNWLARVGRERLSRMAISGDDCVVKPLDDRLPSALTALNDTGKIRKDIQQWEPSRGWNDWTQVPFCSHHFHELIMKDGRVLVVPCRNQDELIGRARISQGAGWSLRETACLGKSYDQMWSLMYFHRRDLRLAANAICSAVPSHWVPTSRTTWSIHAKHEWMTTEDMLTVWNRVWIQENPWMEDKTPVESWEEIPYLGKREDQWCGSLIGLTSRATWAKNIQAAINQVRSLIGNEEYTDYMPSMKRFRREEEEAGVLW

Cc1ccc(C)c(OCc2ccc(C(=O)NN)o2)c1
IC50 [1]: > 80 µM (inactive)

Cc1cc(C)cc(NC(=N)Nc2nc(C)cc(C)n2)c1
EC50 [2]: 2.99 µM (active)

C=CCn1c(S)nnc1-c1ccco1
IC50 [3]: > 64 µM (inactive)

Oc1cc(-c2ccccc2)nc2cc(-c3ccc(Br)cc3)nn12
EC50 (HEK293 [4]): 10.8 µM (active) | IC50 (HEK293 [5]): 5.12 µM (inactive) | IC50 (HEK293 [6]): 16.9 µM (active) | IC50 (HEK293 [7]): > 20 µM (inactive)

CCN(C[C@H]1N[C@@](C)(C(=O)OC)[C@H]2C(=O)N(Cc3ccccc3)C(=O)[C@@H]12)C(=O)c1ccc(C(C)(C)C)cc1
AC50 [8]: 10.2 µM (active) | AC50 [9]: 4.92 µM (active) | AC50 [10]: 16.8 µM (active) | AC50 [11]: 5.34 µM (active) | IC50 (H9c2): > 79 µM (inactive)

CCOc1ccccc1CN1CCN(Cc2cccc3nonc23)CC1CCO (configuration not stated)
EC50 [2]: 5.31 µM (active)

CC1(Oc2ccc3ccccc3c2)CCN(Cc2cccn2-c2nccs2)C1 (configuration not stated)
AC50 [8]: 14.7 µM (active) | AC50 [12]: 51.9 µM (active) | AC50 [9]: 12.3 µM (active) | AC50 [10]: 29.4 µM (active) | AC50 [11]: 10.9 µM (active)

C=CCN1C(=O)CS/C1=N\c1cccc(O)c1
IC50 [3]: > 64 µM (inactive)

O=C(N/N=C/c1ccccc1O)c1ccncc1 [SALINAZID]
IC50 (Nonstructural protein 1): 7.54 µM (active)

O=C(C[N+]1(CC#Cc2ccccc2)CCCCC1)c1ccc(Cl)cc1
EC50 [2]: 7.5 µM (active)

CN(C)CCCNc1nc2cc(-c3cnn(Cc4ccccc4)c3)sc2c(=O)n1C
AC50 [13]: 19.8 µM (active)

O=C(NCCC1CCCCN1S(=O)(=O)c1ccc(Cl)cc1)C(=O)NCc1ccncc1 (configuration not stated)
EC50 [14]: 9.38 µM (active) | AC50 (Paired box protein Pax-8): 3.27 µM (active) | EC50 [15]: 15.5 µM (active) | IC50 [1]: > 80 µM (inactive) | EC50 [16]: 20.8 µM (active)

COC(=O)Cn1cnc2c(Cl)nc(F)nc21
AC50 [8]: 25.6 µM (active) | AC50 [12]: 47.3 µM (active) | AC50 [11]: 20.5 µM (active)

CCOc1cc2c3c(c1)C(C)CC(C)(C)N3C(=O)C2=O (configuration not stated)
AC50 [8]: 12.2 µM (active) | AC50 [12]: 50.9 µM (active) | AC50 [9]: 6.91 µM (active) | AC50 [10]: 12.7 µM (active) | AC50 [11]: 8.22 µM (active)

N#CC1=C(N)Oc2c(ccc3cccnc23)C1c1cccnc1 (configuration not stated)
AC50 (INS1): 3.17 µM (active) | IC50 (Nonstructural protein 1): 56.6 µM (active) | EC50 [17]: 1.18 µM (active) | EC50 [18]: 22.1 µM (active)

CCCCOc1ccc(Nc2cc(Cl)ccc2C(=O)O)cn1
IC50 (Genome polyprotein): 59.8 µM (active) | EC50 [2]: 10.6 µM (active)

CCn1c(=O)cc(OCC(=O)NCc2ccc(C)o2)c2ccccc21
IC50 [1]: > 80 µM (inactive)

Oc1cc(O)cc(-c2cc3ccc(O)cc3o2)c1 [MORACIN M]
IC50 [19]: 23 µM (active) | IC50 [1]: > 80 µM (inactive)

CCOC(=O)c1c(C)n(CC(O)CN(C)C)c2cc(Br)c(OC)cc12 (configuration not stated)
EC50 [20]: > 60 µM (not active) | EC50 [21]: 685 nM (active) | AC50 [13]: 10.1 µM (active)

Cc1nnc(SC(=O)N2c3ccccc3Sc3ccccc32)s1
EC50 [22]: > 120 µM (not active) | AC50 [8]: 30.8 µM (active) | AC50 [12]: 10.6 µM (active) | AC50 [10]: 3.79 µM (active) | EC50 [23]: > 60 µM (not active) | EC50 (H4): > 120 µM (not active)

Cc1ccc(C)c(NC(S)=NCCN(C2CCCCC2)C2CCCC2)c1
IC50 [3]: 50 µM (inactive)

C/C(CC(=O)N(C(C)C)C(C)C)=N\NC(=O)COc1ccc(Cl)cc1Cl
EC50 [2]: 13.3 µM (active)

COc1ccc(Cl)c2sc(N(CCN(C)C)C(=O)c3ccc4c(c3)OCCO4)nc12
AC50 [13]: 9.01 µM (active)

O=C(N/N=C/c1ccc(O)cc1O)c1ccncc1
IC50 (Nonstructural protein 1): 5.88 µM (active)
